# Results: US20100184869A1, “METHOD AND KIT FOR DETERMINING SIRTUIN MODULATING AGENTS, SIRTUIN MODULATING PROCEDURE, SIRTUIN MODULATING COMPOUNDS AND COMPOSITIONS INCLUDING THE SAME” (priority 2008, published 2010)
# Test system: SIRT1 gene expression
# Experiment: semi-quantitative RT-PCR of sirtuin mRNA/β-actin mRNA ratio in zebrafish tissues after resveratrol
# Type: in vivo, zebrafish (Danio rerio)
# Conditions: FIG. 3
# Excerpt: On the Y axis, I is the rate of mRNA X, a is muscle and b is liver.
# The method for determining modulating agents of sirtuin gene expression is comprised of the following stages: • a) contacting cells comprising at least on gene of the sirtuin family and the β-actin gene, with a modulating agent; • b) determining the relative abundance of mRNA of the sirtuin-family gene; • c) determining the relative abundance of the mRNA of the β-actin gene; and • d) determining the mRNA SIRTImRNA β-actin ratio.
# The mapping of the pattern and levels of expression in each one of the eight genes related to zebrafish sirtuin was determined in eight tissues (spleen, gills, brain, heart, liver, female sexual organs and male sexual organs, skeletal muscle and kidneys), by way of the analysis of semi-quantitative RT-PCR comparing the relative abundance of mRNA of each one of the genes related to sirtuins with the mRNA of the gene codifying for β-actin (mean ±E.P.) (FIG. 2 and Table 2).
compound,measurement,setting,value
"Oc1ccc(/C=C/c2cc(O)cc(O)c2)cc1 [resveratrol, 3.4′,5-trihydroxy-trans-stilbene]",SIRT1 gene expression (mRNA SIRT/mRNA β-actin ratio),zebrafish liver,significant increase
same,SIRT1 gene expression (mRNA SIRT/mRNA β-actin ratio),zebrafish skeletal muscle,significant increase
